Reference: PMC13252604, “First Generation Proteolysis Targeting Chimeras (PROTACs) for the Treatment of Progeria” (Advanced Science, 2026)

Assays:
[1] = tested on: phosphorylated histone 2AX (pH2AX); assay: pH2AX immunoblot in mouse progeroid cells; format: cell-based; details: Lmna^G609G/G609G fibroblasts, 5 µM, relative to GAPDH
Description: Confocal fluorescence microscopy images are representative of 2 independent experiments. […] Representative cropped immunoblots are shown. […] MW, molecular weight (in kDa) markers. (C) PROTAC 2 decreases senescence‐associated β‐galactosidase (SA‐βgal) activity, interleukin (IL) 1α and p16 senescent markers. Lmna^G609G/G609G (G609G) or Lmna^+/+ (WT) fibroblasts were incubated with vehicle or compound 2 (5 µM). […] Data were analysed using one‐way ANOVA followed by Dunnett's post–hoc test. ^*, p < 0.05; ^**, p < 0.01, ^***, p < 0.001, ^****, p < 0.0001 vs G609G cells. […]
compound exposure. […] Samples were analysed by electrophoresis in polyacrylamide gels (All Kd SDS-PAGE, BioRad) and the proteins transferred to nitrocellulose membranes (GE Healthcare, Amersham). […]
GAPDH (Cell Signaling, 2118S, 1:5000) and anti-actin (Santa Cruz Biotechnology, sc-376248, 1:500) as antibodies for loading control. […] The bands were quantified by densitometry using the […]
Quantification of different proteins intensity was performed using ImageJ (NIH) except for nuclear rim progerin intensity with Cell Profiler (Broad Institute). […]
SA β-galactosidase activity was determined by the FDG method. […]

human serum albumin = human serum albumin (Homo sapiens, UniProt P02768); assay: Human serum albumin binding
Text: TABLE 1 Pharmacokinetic parameters of PROTAC 2. | column: HSA binding ^c

Sequence of human serum albumin (P02768 25-609): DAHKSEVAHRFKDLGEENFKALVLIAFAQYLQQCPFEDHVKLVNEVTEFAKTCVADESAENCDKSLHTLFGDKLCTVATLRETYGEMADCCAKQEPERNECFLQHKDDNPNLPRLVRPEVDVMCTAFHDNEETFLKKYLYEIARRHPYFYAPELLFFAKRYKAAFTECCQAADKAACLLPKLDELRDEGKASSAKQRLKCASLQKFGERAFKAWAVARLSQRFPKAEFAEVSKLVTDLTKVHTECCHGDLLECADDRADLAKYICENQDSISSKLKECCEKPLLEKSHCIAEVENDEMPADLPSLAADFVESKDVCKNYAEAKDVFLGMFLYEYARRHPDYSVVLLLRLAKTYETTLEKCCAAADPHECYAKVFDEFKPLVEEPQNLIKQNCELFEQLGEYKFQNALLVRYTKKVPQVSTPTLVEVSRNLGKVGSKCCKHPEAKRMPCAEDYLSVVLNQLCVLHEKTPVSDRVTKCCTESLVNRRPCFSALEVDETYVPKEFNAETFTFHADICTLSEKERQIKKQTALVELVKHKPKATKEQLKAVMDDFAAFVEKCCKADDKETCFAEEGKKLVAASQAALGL

SMILES: CC1(C)Oc2cc3oc(=O)ccc3cc2C[C@@H]1OC(=O)CCCCCNc1cccc2c1C(=O)N(C1CCC(=O)NC1=O)C2=O (stereo partly drawn) [compound 2]
- levels of phosphorylated histone 2AX (pH2AX) [1]: reduces the levels of phosphorylated histone 2AX
- HSA binding (human serum albumin): 99%
- Kd (human serum albumin; read-out: HSA binding K D): 5.8 µM
